Literature values as cited in patent US20050124592A1 (priority 2002, published 2005).
Read-outs that look alike come from different tables or passages of the source.

What was measured:
progesterone receptor = target: T1, progesterone receptor (Homo sapiens, UniProt P06401)
T1 sequence (P06401 1-933): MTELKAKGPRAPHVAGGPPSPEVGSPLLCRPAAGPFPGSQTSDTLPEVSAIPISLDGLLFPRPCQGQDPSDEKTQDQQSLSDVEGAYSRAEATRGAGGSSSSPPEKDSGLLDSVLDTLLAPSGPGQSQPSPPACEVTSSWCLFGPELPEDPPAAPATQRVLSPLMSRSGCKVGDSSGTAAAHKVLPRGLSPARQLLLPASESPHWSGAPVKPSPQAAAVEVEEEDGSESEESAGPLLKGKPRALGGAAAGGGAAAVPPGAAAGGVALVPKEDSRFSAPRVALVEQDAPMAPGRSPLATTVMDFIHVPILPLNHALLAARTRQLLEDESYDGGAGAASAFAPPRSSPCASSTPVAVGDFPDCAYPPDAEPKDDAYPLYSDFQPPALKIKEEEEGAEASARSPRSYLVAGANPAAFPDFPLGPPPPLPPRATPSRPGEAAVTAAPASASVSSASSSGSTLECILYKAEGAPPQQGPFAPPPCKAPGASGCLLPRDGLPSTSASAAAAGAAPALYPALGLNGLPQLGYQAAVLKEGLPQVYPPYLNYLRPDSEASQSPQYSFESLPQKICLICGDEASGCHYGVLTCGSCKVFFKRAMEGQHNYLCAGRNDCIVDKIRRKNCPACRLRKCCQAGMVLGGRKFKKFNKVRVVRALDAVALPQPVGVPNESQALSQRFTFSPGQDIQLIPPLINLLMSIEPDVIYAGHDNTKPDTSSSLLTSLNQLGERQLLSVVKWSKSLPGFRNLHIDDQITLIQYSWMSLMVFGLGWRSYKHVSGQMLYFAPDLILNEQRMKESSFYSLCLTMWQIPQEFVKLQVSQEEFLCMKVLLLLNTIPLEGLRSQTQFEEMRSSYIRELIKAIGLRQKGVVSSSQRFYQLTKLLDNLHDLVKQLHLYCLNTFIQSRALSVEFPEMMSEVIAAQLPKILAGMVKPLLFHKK

## C#C[C@]1(O)CC[C@H]2[C@@H]3[C@H](C)CC4=C(CCC(=O)C4)[C@H]3CC[C@@]21C [tibolone, (7α,17α)-17-hydroxy-7-methyl-19-nor-17-pregn-5(10)-en-20-yn-3-one]
Progesterone receptor
  progestagenic activity: weak
Estrogen receptor
  estrogenic activity: hardly has an estrogenic activity
Estrogen receptor; listed as Tibolone
  estrogenic activity: weak
